The text below walks through data of PubChem BioAssay (NCI).

Some test systems named below: HT29 colon; HOP-92 NSCLC; ACHN renal; EKVX NSCLC; HCT-15 colon; IGROV1 ovarian; HS 578T breast; UACC-257 melanoma; T-47D breast.
Holding throughout (experiment): NCI-60 cell line screen, 48 h

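Growth conditions: 96-well plates. Treatment: test compound, 48 hours, 5 concentrations. Analysis: linear interpolation between bracketing concentrations; unreached endpoints set to highest concentration. TGI marks complete inhibition of growth.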

On to `CN(C)CCCNC(=O)N/N=C/c1ccccn1`, for which the TGI with HT29 colon, with HOP-92 NSCLC, in the assay with ACHN renal, in the assay with EKVX NSCLC, with HCT-15 colon and with IGROV1 ovarian was above 10 µM each time. The TGI in the assay with HS 578T breast, in the assay with UACC-257 melanoma and in the assay on T-47D breast was above 10 µM throughout.
As for `O=C(c1ccccc1)C1C(c2ccccc2[N+](=O)[O-])N1C1CCCCC1` (stereo unspecified), the TGI turned out to be 16.4 µM with HT29 colon; 16.2 µM in the assay on HOP-92 NSCLC; 3.74 µM with ACHN renal; 30.8 µM with EKVX NSCLC; 23 µM with HCT-15 colon; 17.4 µM in the assay on IGROV1 ovarian. Also, the values for the TGI with HS 578T breast, with UACC-257 melanoma and in the assay on T-47D breast were 49.3 µM, 8.88 µM and 7.57 µM, respectively.
On to `Clc1ccc(-c2nn3c(COc4ccc(OCc5nnc6sc(-c7ccc(Cl)cc7)nn56)c(Cl)c4)nnc3s2)cc1`, for which the TGI with HT29 colon was 36.7 µM; in the assay on HOP-92 NSCLC, 37.8 µM; in the assay on ACHN renal it was above 100 µM; with EKVX NSCLC it was above 100 µM; in the assay with HCT-15 colon it was above 100 µM; with IGROV1 ovarian, 43.9 µM. Further, the TGI in the assay on HS 578T breast, in the assay with UACC-257 melanoma and in the assay with T-47D breast was above 100 µM throughout.
For `COc1ccc(C=C2C(C)=NN(c3cccc(Cl)c3)C23C(Cl)C(=O)N3c2nc3ccccc3s2)cc1` (stereo unspecified), the TGI in the assay with HT29 colon is 24.4 µM; in the assay with HOP-92 NSCLC it was 24.6 µM; with ACHN renal it was 51.6 µM; with EKVX NSCLC, above 100 µM; with HCT-15 colon, 37.1 µM; with IGROV1 ovarian it was 40.1 µM. Further, the values for the TGI in the assay with HS 578T breast, in the assay on UACC-257 melanoma and in the assay with T-47D breast were 74.1 µM, 72.3 µM and above 100 µM, respectively.
In the case of `Cc1c(C)c2c(c(N)c1C#N)C(=O)N(NC(=S)Nc1ccccc1)C2=O`, the TGI in the assay on HT29 colon, in the assay on HOP-92 NSCLC, in the assay on ACHN renal, in the assay on EKVX NSCLC, in the assay on HCT-15 colon and with IGROV1 ovarian was above 100 µM each time. Moreover, the TGI in the assay on HS 578T breast, in the assay on UACC-257 melanoma and in the assay on T-47D breast was above 100 µM each time.
Regarding `CC(C)(C)OC(=O)N1CCC2(CC1)C(=O)NCN2c1ccccc1`, the TGI in the assay with HT29 colon, with HOP-92 NSCLC, in the assay with ACHN renal, with EKVX NSCLC, with HCT-15 colon and in the assay on IGROV1 ovarian was above 100 µM in each case. In addition, the TGI in the assay on HS 578T breast, in the assay on UACC-257 melanoma and in the assay with T-47D breast was above 100 µM each time.
In the case of `CC1(c2ccc(Cl)cc2)c2ccccc2C(=O)N1CCCN1C(=O)c2ccccc2C1=O` (stereo unspecified), the TGI in the assay on HT29 colon is above 100 µM; in the assay with HOP-92 NSCLC it was above 100 µM; in the assay on ACHN renal, above 100 µM; with EKVX NSCLC, 7.25 µM; in the assay on HCT-15 colon, above 100 µM; with IGROV1 ovarian it was 70.4 µM. The TGI in the assay with HS 578T breast, with UACC-257 melanoma and in the assay on T-47D breast was above 100 µM in each case.
With `O=[N+]([O-])C(/C=C(\Cl)[N+](=O)[O-])=C(Nc1ccccc1)Nc1ccccc1`, the TGI with HT29 colon amounted to 25.7 µM; in the assay on HOP-92 NSCLC, 14.4 µM; in the assay with ACHN renal it was 31.9 µM; with EKVX NSCLC, 27.4 µM; in the assay on HCT-15 colon, 22.3 µM; with IGROV1 ovarian, 31 µM. Also, the TGI amounted to 27.7 µM in the assay on HS 578T breast, 27.1 µM in the assay with UACC-257 melanoma and 37.3 µM with T-47D breast.
`CC(C)NC(=O)OCCN=C1c2ccccc2C(Br)C(Br)c2ccccc21` (stereo unspecified): the TGI in the assay with HT29 colon was 25 µM; in the assay with HOP-92 NSCLC, 17 µM; in the assay with ACHN renal it was 25.4 µM; in the assay with EKVX NSCLC it was 59.2 µM; in the assay with HCT-15 colon, above 69.8 µM; in the assay on IGROV1 ovarian, 7.14 µM. Moreover, the figures for the TGI in the assay on HS 578T breast, in the assay with UACC-257 melanoma and in the assay on T-47D breast were 31.4 µM, 35.8 µM and 18.4 µM, respectively.
Turning to `CCOC(=O)C(NC(=O)c1ccccc1)(Nc1ccc(S(=O)(=O)Nc2cc(C)on2)cc1)C(F)(F)F` (stereo unspecified), the TGI in the assay with HT29 colon, in the assay with HOP-92 NSCLC, in the assay with ACHN renal, in the assay with EKVX NSCLC, in the assay on HCT-15 colon and in the assay on IGROV1 ovarian was above 100 µM in each case. In addition, the TGI was above 100 µM in the assay on HS 578T breast, above 10 µM in the assay with UACC-257 melanoma and above 100 µM in the assay on T-47D breast.
Consider `C=C(C)C1CCC2(C)C1CCC1(C)C2CCC2C3(C)C4OC(OC4=O)C(C)(C)C3CCC21C` (stereo unspecified), for which the TGI in the assay on HT29 colon, with HOP-92 NSCLC, in the assay with ACHN renal, in the assay on EKVX NSCLC, in the assay on HCT-15 colon and with IGROV1 ovarian was above 100 µM throughout. Besides, the TGI in the assay with HS 578T breast, with UACC-257 melanoma and in the assay with T-47D breast was above 100 µM each time.
Take `COc1cc2c(cc1OC)C(C1CC1)ON(C)CC2` (stereo unspecified): the TGI in the assay with HT29 colon, in the assay with HOP-92 NSCLC, in the assay on ACHN renal, in the assay on EKVX NSCLC, in the assay with HCT-15 colon and with IGROV1 ovarian was above 100 µM each time. In addition, the TGI in the assay on HS 578T breast, in the assay on UACC-257 melanoma and in the assay with T-47D breast was above 100 µM each time.
As to `CC(=O)N1CN2C(=O)CCC2c2cc(C)ccc21` (stereo unspecified), the TGI in the assay on HT29 colon, in the assay on HOP-92 NSCLC, in the assay on ACHN renal, with EKVX NSCLC, with HCT-15 colon and in the assay on IGROV1 ovarian was above 100 µM in each case. Besides, the TGI in the assay with HS 578T breast, in the assay on UACC-257 melanoma and in the assay on T-47D breast was above 100 µM throughout.
For the compound `O=c1[nH]c(NCCCCCO)nc2nc[nH]c12`, the TGI in the assay on HT29 colon, in the assay with HOP-92 NSCLC, with ACHN renal, in the assay with EKVX NSCLC, with HCT-15 colon and with IGROV1 ovarian was above 100 µM throughout. Further, the TGI in the assay on HS 578T breast, with UACC-257 melanoma and with T-47D breast was above 100 µM in each case.
